Test results taken from a melting point compilation (Tetko et al.; mined from patent text by program, amines drawn as free bases though some values may be those of a salt).

Compound | melting point [°C]
c1ccc(-n2c3ccccc3c3c2ccc2c4ccccc4n(-c4ccccc4)c23)cc1 | 166
COC(=O)c1ccccc1S(=O)(=O)NC(=O)Nc1nc(COc2ccccc2)cc(OC)n1 | 178 to 180
CN1CC(=O)Nc2ccc(Cl)c(F)c2C1=O | > 250
O=C(O)CCCCCCCn1nnc(-c2ccccc2)c1-c1ccccc1 | 103 to 104
CCCCN(CCCC)c1nnc(N)s1 | 116 to 117
O=S(=O)(O)c1ccc(NCc2ccc(Cl)cc2Cl)cc1 | > 275
CCOC(=O)/C=C/c1ccc(OCCOC)cc1Oc1cc(C(F)(F)F)ccc1[N+](=O)[O-] | 108 to 110
NC(=O)c1ncn2c1CN=C(c1ccccc1Br)c1cc(F)ccc1-2 | 298 to 299
CCc1c(-c2ccc(OCc3ccccc3)cc2)c2cc(C(C)=O)c3ccc(CO)c1n32 | 190 to 191
C=Cc1cc(C(C)NC(=O)OC(C)(C)C)ccc1NS(=O)(=O)C=C (configuration not stated) | 80 to 82
CC(C)C[C@H](O)[C@H](O)[C@H](Cc1ccccc1)NC(=O)OC(C)(C)C | 128 to 130
Cc1ccc(C(=O)Nc2nc(-c3ccccc3)c(-c3nc4ccccc4c(=O)n3-c3ccccc3Cl)s2)cc1 | > 275
CCCC[C@H](NC(=O)C(CSC(C)=O)C(F)(F)F)C(=O)O (some centres not stated) | 123 to 125
N[C@@H](C1CCCCC1)C(O)(Cc1ccccc1)Cc1ccccc1 | 80 to 81
O=C(O)COc1ccc(SSc2ccc(OCC(=O)O)c(Br)c2)cc1Br | 146 to 150
COc1cc(Nc2nccc(-c3ccc(CO)cc3)n2)cc(OC)c1OC | 171 to 172
CCN(C)c1nc2sc3c(NCc4ccncc4)ncnc3c2c2c1CCC(C)(C)C2 | 207
NC(=O)c1c(Cl)cc(Cl)c(OCCCC(=O)O)c1Cl | 165 to 166
C=C(c1ccsc1C=O)c1cc(C(C)(C)C)cc2c1CCC2(C)C | 99 to 100
CCC(CO)Nc1cc(C)nc(Oc2c(C)cc(Cl)cc2C)c1C(=O)OC (configuration not stated) | 122 to 124
Nc1nc(NCCN2CCOCC2)nc2nc(-c3ccco3)nn12 | 242 to 244
O=C(NC1CC1)c1ccc(-c2ccc3nnn(Cc4ccc5ncccc5c4)c3n2)cc1F | 193 to 195
COC(=O)C[C@@H]1C[C@@H](COc2ccc(-c3ccc(C#N)cc3)cc2)NC1=O | 138 to 140
Nn1cccc1C(=O)C(F)(F)F | 33 to 35
COc1ccccc1-c1ccc(C[C@H](NC(=O)c2c(Cl)cccc2Cl)C(=O)O)cc1OC | 100 to 102
CCSC(=O)N(C=C(C#N)C#N)c1cccc(Cl)c1 | 68

Compound | melting point [°C]
Nc1ccc(-c2noc(-c3cnn4c(C(F)(F)F)cc(-c5ccc(C(F)(F)F)c(Cl)c5)nc34)n2)cn1 | 234
N#Cc1ccccc1OCCCC(=O)O | 127 to 128
O=C(C(=O)c1ccc(C#Cc2ccccc2)cc1)c1ccc(C#Cc2ccccc2)cc1 | 168 to 170
Cc1nc2c(C)cccn2c(=O)c1CCN1CC=C(c2c[nH]c3ccccc23)CC1 | 210 to 212
COc1nc(C)nc(NC(=O)NS(=O)(=O)c2ccccc2-c2ccccc2)n1 | 190 to 193
COc1ccc(-c2nc(Cl)c(Oc3ccccc3OC)c(NS(=O)(=O)c3ccc(C(C)(C)C)cc3)n2)cc1 | 221 to 222
O=c1c2c(Cl)cc(Cl)cc2n(Cc2ccccc2)c(=O)n1Cc1ccc(Cl)cc1 | 161 to 165
Cc1noc(NS(=O)(=O)c2ccccc2-c2ccccc2)c1C | 154 to 155
CCCCCCCc1ccc(CCCCCCC)c(C#N)c1C#N | 4.6
CCc1nc(O)c2c(n1)c(C)nn2CC | 192 to 194
Cc1cc(C)c2nc(C3CC3)n(Cc3ccc(C(CC(=O)O)c4ccccc4)cc3)c2n1 (configuration not stated) | 189 to 190
N#CN1CCC(=C2c3ccccc3Sc3cccnc32)CC1 | 192 to 193
C[C@@H](N1CC(=O)N(c2ccc(OC(F)(F)C(F)F)cc2)CC1=O)[C@@]1(c2ccc(F)cc2F)CO1 | 168 to 170
C[C@@H]1Cc2ccsc2[C@H](C)N1CCNC(=O)c1cccs1 (relative stereo) | 111 to 113
N#CNc1cc(F)ccc1N1CCOCC1 | 168 to 170
CC(C)(C)C(=O)Nc1nc(CC(=O)Nc2cccc(C(F)(F)F)c2)cs1 | 147 to 152
CS(=O)(=O)CCOCCn1cnc2c(N)nc3ccccc3c21 | 145 to 148
COc1ccc(N(C)c2nc(C)nc3oc(C)cc23)cc1 | 108 to 109
CC(O)c1ccc(OCCCCl)c(O)c1 (configuration not stated) | 107 to 109
CCOC(=O)C1=C(C)NC(CN2C(=O)c3ccccc3C2=O)=C(C(=O)OCC)C1c1ccccc1Cl (configuration not stated) | 166
Cc1nc(CC#N)c2c(OCc3ccccc3)cccn12 | 118 to 119
Fc1ccc(NCc2ccccc2)cc1 | 38 to 39
N#Cc1ccc(C2C(=O)N(Cc3ccccc3)Cc3cncn32)cc1 (configuration not stated) | 163 to 165
C#CCCCCCCCCCCCCCCCCCCCCO | 64 to 70
CN(C)CCOc1ccc(N(C(=O)c2ccc(F)cc2)c2ccccc2)cc1 | 88.5 to 90
OC1(c2ccc(Cl)cc2)CCN(CCCn2cnc3ccccc32)CC1 | 160

Compound | melting point [°C]
CC(C)(C)c1ccc2nc3c(c(O)c2c1)CCCC3 | 320 to 322
NC(=O)c1ccc(OCCN(Cc2ccccc2)CC(O)c2ccc(OCc3ccccc3)c(OCc3ccccc3)c2)cc1 (configuration not stated) | 110 to 111
CCC1(Br)Cc2cc(OCC(=O)O)c(Cl)c(Cl)c2C1=O (configuration not stated) | 189 to 191
CCOC(=O)C=Cc1ccc(CCNS(=O)(=O)CCc2ccc(Cl)cc2)cc1 | 91 to 92
O=C1c2cc(Cl)ccc2-n2c1nc1ccccc1c2=O | 295 to 296
CC(C)(C)OC(=O)N1CC(O)C(SCc2ccccc2)C1 (configuration not stated) | 97 to 98
CSc1nc2sccc2c2nnc(SCc3ccccc3)n12 | 209 to 211
CCc1ccc(-c2ccc(C(=O)N[C@@H]3CCc4cccc(N5CCN(C)CC5)c4C3)cc2)cc1 | 234 to 235
CCOC(=O)c1sc(-c2ccc(C#N)cc2)nc1CBr | 156
Cc1cc(CCC(=O)O)no1 | 82 to 84
O=C(Nc1c[nH]nc1C(=O)NCCSc1ccccn1)c1ccccn1 | 162 to 163
CCC1=NNC(C)=C(C(=O)OCCOC(C)C)C1c1cccc([N+](=O)[O-])c1 (configuration not stated) | 84
COc1cc(-c2nc3ncccc3o2)cc(C(C)(C)C)c1 | 119 to 121
Cc1cccc(C2SC3(CCN(C(=O)Oc4ccccc4)CC3)c3ccccc32)c1 (configuration not stated) | 154 to 157
N#Cc1cc(-c2ncccc2C(=O)O)ccc1OCCc1ccccc1Cl | 187 to 188
O=C(OCc1ccccc1)c1ncn2c1[C@@H]1CCN1C(=O)c1c(Cl)cccc1-2 | 180 to 182
Cc1ccnc(C(=O)c2[nH]c3cc(F)ccc3c2CC(=O)O)c1 | 208
COc1nc2nc(C(OC(C)=O)C3(Br)C(=O)N4C(C(=O)OCc5ccc([N+](=O)[O-])cc5)=CSC43)cn2c2c1CCC2 (configuration not stated) | 119
CC(C)(C)SSc1nc2ccccc2s1 | 80 to 80.5
CC(=O)C(=Cc1ccc(Br)s1)C(C)=O | 70 to 74
O=C(CNS(=O)(=O)c1ccc(Nc2nccc(Nc3ccc(F)cc3)n2)cc1)NC1CCOCC1 | 253 to 254
CC(C)(O)Cc1ccc2ccccc2c1 | 79 to 80
CCCC(O)c1cc(C(=O)OC)c(NC(C)=O)cc1C(F)(F)F (configuration not stated) | 97 to 101
CC(=O)NC1(C)Cc2ccccc2C(C)c2ccccc2C1 (configuration not stated) | 185 to 224
O=c1[nH]c(C(F)(F)F)c(Br)c(=O)[nH]1 | 236 to 240
CCc1cn(C2CC(O)C(CNC)O2)c(=O)[nH]c1=O (configuration not stated) | 145 to 147

Compound | melting point [°C]
COC(=O)C(C)c1ccc2c(c1)CC(=O)c1ccccc1S2 (configuration not stated) | 81 to 82
N#CC=CNc1ccnc(-c2ccncc2)n1 | 253 to 255
COCCNC(=O)c1n[nH]cc1NC(=O)c1ccccn1 | 166 to 167
CN1CCN(c2ccc(C(=O)O)cc2S(=O)(=O)Nc2ccccc2)CC1 | 252 to 253
NC(CCCc1ccccc1)C(=O)O (configuration not stated) | 213 to 215
C=CCOc1cccc2oc(C(=O)OCC)c(C)c12 | 64 to 65
CCCCOc1cc(C(=O)O)cc(NC=O)c1C(=O)c1ccccc1 | 180 to 183
O=C(O)c1cn(-c2ccc(F)cc2F)c2cc(Cl)c(F)c(Cl)c2c1=O | 244 to 246
COc1cc(NC(=O)c2ccccc2)c(=O)[nH]c1C | 247 to 248
COc1cccc(-c2cc(=O)c3cc(OCCCCCN4CCC(O)CC4)ccc3o2)c1 | 115 to 116
Cc1cccc(C)c1NC(=O)N=C1N(C)CC(=O)N1C | 116 to 118
O=C(O)CCc1cc(F)c2ncc(C(=O)NCc3ccc(Cl)cc3)c(O)c2c1 | 284 to 286
CCOC(=O)c1cc2ccccc2n1-c1ccc(OC)c(OC)c1 | 126 to 128
COC(=O)C=Cc1c(C(=O)OC)[nH]c2c(C)ccc(C)c12 | 135 to 136
COc1cc2c(Nc3ccc(Br)cc3F)ncnc2cc1OCCCS(C)(=O)=O | > 250
CCn1c(CO)nc(C(C)C)c1Sc1cc(C#N)cc(C#N)c1 | 167 to 169
CC(=O)Oc1ccc(C[C@H]2CCc3ccccc3O2)cc1 | 64 to 65
COc1ccc2c(-c3ccc(Cl)cc3F)noc2c1Cl | 193 to 194
COC(=O)c1cc(N)c2cc(Cc3ccc(F)cc3)cnc2c1O | 114 to 115
CCCCCCCCCCCCCCCCNc1ccc(C=O)cc1 | 66.5 to 67.5
Clc1nccc(N[C@H]2CC[C@@H](c3ccccc3)CC2)c1Br | 105
Cc1ccc(C(=O)C2=C(O)C(=O)N(c3ccc(C(F)(F)F)cn3)C2c2ccc(C(C)C)cc2)cc1 (configuration not stated) | 255 to 257
Cc1c2c(c(C=O)c(C(C)C)c1OCc1ccccc1)OC(C)(C)C2 | 107 to 108
Cc1[nH]c2ccc(O)cc2c1C(=O)NC1CCN(CCc2ccccc2)CC1 | 232 to 236
